From patent US8183005B1, “Pharmaceutical agents for treating HCV infections” (priority 2004, dated 2012)

What was measured:
Format in all cases: cell-based
in vitro = conditions: human, Huh-3-1 replicon cells, three days, Cell Counting Kit-8; read-out: Cytotoxicity CC50
Method: (§1) Firefly luciferase HCV replicon cells (Huh-3-1) suspended in Dulbecco's MEM (Gibco Cat. No. 10569) containing 5% fetal bovine serum (Hyclone Cat. No. SH30071.03) were plated onto a 96-well plate at 5000 cells/well, and cultured overnight under 5% CO2 at 37° C. Approximately 20 hours later, fumonisin B1 was added to a final concentration of 1.37 μM to 1000 μM by carrying out a sequential three-fold dilution, and the cells were then cultured for three more days. The assay was carried out by preparing two types of assay plates: one an opaque white plate and the other a transparent plate. After culturing, the white plate was subjected to the Steady-Glo Luciferase Assay System (Promega Cat. No. E2520). More specifically, 100 μL of reagent was added to each well, mixed three to four times using a pipette, and then stood for five minutes before luminescence was measured using 1450 MicroBeta TRILUX (WALLAC). IC50 (50% inhibitory concentration) of a pharmaceutical agent was calculated by subtracting the value obtained without adding the cells as the background value from all of the values, and then defining the level of inhibition without addition of the pharmaceutical agent as 0%. A Cell Counting Kit-8 (DOJINDO Laboratories, Cat. No. 341-07761) was used for the cytotoxicity assays. 10 μL of reagent was added to each well, mixed three to four times using a pipette, and then stood for approximately 30 minutes; measurements were performed when OD450 nm reached approximately 1.0. IC50 (50% inhibitory concentration) of a pharmaceutical agent was calculated by subtracting the value obtained without adding the cells as the background value from all of the values, and then defining the level of inhibition without addition of the pharmaceutical agent as 0%.
(§2) Based on the results of Example 5, the following method was used to measure the effect on cytotoxicity and HCV replicon activity under conditions in which Huh-3-1 cells show reduced LCB1 expression. More specifically, cells were plated onto a 96-well plate at 3500 cells per well, and cultured overnight under 5% CO2 at 37° C. 1.75 μL of 2 μM siRNA was added to 23.3 μL of ECR buffer (buffer included in the RNAiFect Kit), this was stirred vigorously, and then 0.31 μL of RNAiFect transfection reagent was added. This was stirred gently at room temperature and then allowed to stand for ten minutes. siRNA was added to a final concentration of 35 nM, and this was cultured for four days. The effect on cytotoxicity was determined by adding 10 μL of Cell Counting Kit-8 (DOJINDO Laboratories Cat. No. 341-07761) to the medium, mixing three to four times using a pipette, and then allowing this to stand for one hour at 37° C. Absorbance was then measured at 450 nm using a microplate reader Emax (Molecular Devices). After incubation, the medium was exchanged for fresh medium, and the plate was subjected to the Steady-Glo Luciferase Assay System (Promega Cat. No. E2520). 100 μL of reagent was added to each well, mixed three to four times using a pipette, and then allowed to stand for five minutes. Luminescence was then measured using 1450 MicroBeta TRILUX (WALLAC) to determine the HCV replicon activity. IC50 (50% inhibitory concentration) of a pharmaceutical agent was calculated by subtracting the value obtained without adding the cells as the background value from all of the values, and then defining the level of inhibition without addition of the pharmaceutical agent as 0%.
(§3) A Cell Counting Kit-8 (DOJINDO Laboratories, Cat. No. 341-07761) was used for the cytotoxicity assays. More specifically, 10 μL of Cell Counting Kit-8 was added to the transparent plate, and this was warmed at 37° C. for 30 to 60 minutes. Using a 96-well plate reader, absorbance was measured at a wavelength of 450 nm with a reference wavelength of 630 nm. […]

HCV replicon = HCV replicon assay (luciferase); conditions: for IC50: firefly luciferase HCV replicon cells (Huh-3-1), cultured three days with compound; for HCV replication (replicon activity) versus viable cell count: HCV replicon cells, 72 hours; for HCV replicon activity compared with control siRNA-treated cells: Huh-3-1 cells, siRNA 35 nM, four days
Method: as §1, §2
First, to quantify the copy number of HCV-RNA, an RNA was constructed such that a firefly-derived luciferase gene was introduced into the HCV-RNA as a reporter gene. According to the method of Krieger et al. (J. Virol., 75: 4614), the luciferase gene was introduced immediately after the Internal Ribosome Entry Site (IRES) of the HCV gene, so that the gene was fused with the neomycin-resistance gene. […]

Huh-3-1 cells = experiment: in vitro; conditions: for CC50: Huh-3-1 replicon cells, three days, Cell Counting Kit-8, read-out: Cytotoxicity CC50; for effect of siRNA treatment on cytotoxicity: Huh-3-1 cells, siRNA 35 nM, four days
Method: as §1, §2, §3

HCV protein (NS3) = experiment: Western blot analysis of HCV protein synthesis in Huh-3-1 replicon cells; conditions: Hepatitis C virus, 72 h, read-out: concentration reducing expression of HCV proteins by 50%
Method: After 72 hours, the culture medium was discarded, phosphate buffered saline (PBS) was added, and the cells were dislodged by pipetting and then collected by centrifugation. A lysis solution for phosphate (50 mM Tris-HCl (pH 7.5), 0.5% Triton, 3 mM EDTA, 150 mM NaCl, 12 mM glycerophosphate, 50 mM NaF, 1 mM Na3VO4, 0.5 mM PMSF, and 0.5 mM aporotinin) was added to the cells, the cells were disrupted by pipetting, and the supernatant was collected by high-speed centrifugation. A protein assay was carried out using Dye Reagent (Nacalai Tesque #074-27) (Bovine Gamma Globulin, Standard solution, BIO-RAD #500-0005). […] Rainbow molecular weight markers (Amersham Bioscience #RPN756) were used as molecular weight size markers. […] Western analysis was performed using a rabbit antibody against NS3, derived from an HCV protein. Anti-actin rabbit antibody was used as an internal standard.

HCV RNA replication = experiment: Northern blot analysis of HCV RNA replication in Huh-3-1 replicon cells; conditions: Hepatitis C virus, 72 h, read-out: concentration reducing replicon RNA by 50%
Method: Cells were collected 72 hours later, total RNAs were extracted, and this was subjected to Northern blot analysis using a neomycin resistance gene as a probe according to the NorthernMax Kit method, available from Ambion.
The probes were labeled with biotin using a BrightStar Psoralen-Biotin Kit (Ambion #9860G3).
1 μg of the total RNAs were electrophoresed on a 1% agarose gel, and then the RNAs were stained with ethidium bromide. The resulting gel was photographed and decolorized, then NorthernMax transfer buffer was used for two hours to transfer the RNAs to the transfer membrane. While the membrane was still wet, the RNAs were fixed to the transfer membrane using a UV crosslinker. The membrane was pretreated in ULTRAhyb for 30 minutes at 42° C. while being rotated in a Hybridization oven. This pretreatment solution was then discarded, and the membrane was treated by adding the biotinylated neomycin resistance gene and 10 mL of ULTRAhyb solution, and then shaking overnight at 42° C.
The ULTRAhyb solution was then discarded, and 15 mL of High Stringency Buffer pre-warmed to 42° C. was added to the membrane, and this was shaken for 30 minutes at 42° C. This same operation was then repeated once. The transfer membrane was washed using enough wash buffer to soak the membrane. The transfer membrane was shaken in a blocking buffer for 30 minutes, then this solution was discarded. […]

[1] = test system: LCB1 (a subunit of the SPT heterodimer); experiment: Inhibition of LCB1 protein expression by siRNAs, Western blotting; conditions: Huh-3-1 cells, siRNA 35 nM, four days
Method: 1.2×10^5 Huh-3-1 cells were plated onto a 6-well plate, and the cells were cultured overnight under 5% at 37° C. 2.3 μL of 20 μM siRNA was added to 100 μL of ECR buffer (a buffer included in the RNAiFect Kit), this was stirred vigorously, and after the addition of 4 μL of RNAiFect transfection reagent (Qiagen Cat. No. 301605) this was stirred gently at room temperature and allowed to stand for ten minutes. siRNA was added to a final concentration of 35 nM, and this was cultured for four days.
The cells were suspended in a cell lysis buffer (50 mM Tris-HCl (pH 7.5), 0.5% Triton, 3 mM EDTA, 150 mM NaCl, 12 mM glycerophosphate, 50 mM NaF, 1 mM Na3VO4, 0.5 mM PMSF, 0.5 mM aporotinin), and were allowed to stand on ice for ten minutes. This was centrifuged at 15,000×g for ten minutes, and the supernatant was collected. After quantifying the protein, the amount of protein in each sample was adjusted to 10 μg, and this was added to ¼ volume of 5×SDS sample buffer (125 mM Tris-HCl (pH 6.5), 25% Glycerol, 5% SDS, 0.25% BPB, 5% 2-Mercaptoethanol) and treated for five minutes at 98° C. […] The membranes were washed with 0.1% Tween 20/PBS, and then reacted for one minute with ECL, and the resulting signals were detected by autoradiography.

CCCCCCCC(=O)CCCCCC/C=C/[C@H](C(=O)N[C@@H](Cc1ccc(C(F)(F)F)cc1)C(=O)O)[C@@](O)(CC(=O)O)C(=O)O [(18)]
CC50 (in vitro): > 1000 nM
IC50 (HCV replicon; Hepatitis C virus, 72 h): 68 nM

CCCCCCCC(=O)CCCCCC/C=C/[C@H](C(=O)N[C@@H](Cc1ccc(C#N)cc1)C(=O)O)[C@@](O)(CC(=O)O)C(=O)O [(19)]
CC50 (in vitro): > 1000 nM
IC50 (HCV replicon; Hepatitis C virus, 72 h): 12 nM

CCCCCCCC(=O)CCCCCC/C=C/[C@H](C(=O)N[C@@H](Cc1ccc(Cl)cc1)C(=O)O)[C@@](O)(CC(=O)O)C(=O)O [(20)]
CC50 (in vitro): > 1000 nM
IC50 (HCV replicon; Hepatitis C virus, 72 h): 55 nM

CCCCCCCC(=O)CCCCCC/C=C/[C@H](C(=O)N[C@@H](Cc1ccc([N+](=O)[O-])cc1)C(=O)O)[C@@](O)(CC(=O)O)C(=O)O [(21)]
CC50 (in vitro): > 1000 nM
IC50 (HCV replicon; Hepatitis C virus, 72 h): 80 nM

CCCCCCCC(=O)CCCCCC/C=C/[C@H](C(=O)N[C@@H](Cc1ccc(OCCCC)cc1)C(=O)O)[C@@](O)(CC(=O)O)C(=O)O [(26)]
CC50 (in vitro): > 1000 nM

CC(C)CCOc1ccc(C[C@H](NC(=O)[C@@H](/C=C/CCCCCCC(=O)CCCCC2CCCCC2)[C@](O)(CC(=O)O)C(=O)O)C(=O)O)cc1 [(38)]
CC50 (Huh-3-1 cells): > 1000 nM
IC50 (HCV replicon): 24 nM

CCCCCCCC(=O)CCCCCC/C=C/[C@H](C(=O)N[C@@H](Cc1ccc(OCC=C(C)C)cc1)C(=O)O)[C@@](O)(CC(=O)OC)C(=O)O [(41)]
CC50 (in vitro): > 1000 nM

CCCCCCCC(=O)CCCCCC/C=C/[C@H](C(=O)N[C@@H](Cc1ccc(OCC=C(C)C)cc1)C(=O)OC)[C@@](O)(CC(=O)OC)C(=O)O [(42)]
CC50 (in vitro): > 1000 nM

CCCCCCC(O)C(=O)CCCCCC/C=C/[C@H](C(=O)N[C@@H](Cc1ccc(O)cc1)C(=O)O)[C@@](O)(CC(=O)O)C(=O)O (stereo partly shown) [(43)]
CC50 (in vitro): > 1000 nM

CCCCCCCC(=O)CCCCCC/C=C/[C@H](C(=O)N[C@@H](Cc1c[nH]c2ccccc12)C(=O)O)[C@@](O)(CC(=O)O)C(=O)O [(44)]
CC50 (in vitro): > 1000 nM

CCCCCCC(O)C(=O)CCCCCC/C=C/[C@H](C(=O)N[C@@H](Cc1ccc(OCC=C(C)C)cc1)C(=O)O)[C@@](O)(CC(=O)O)C(=O)O (stereo partly shown) [(45)]
CC50 (in vitro): > 1000 nM

CCCCCCCC(CCCCCC/C=C/[C@H](C(=O)N[C@@H](Cc1ccc(OCC=C(C)C)cc1)C(=O)O)[C@@](O)(CC(=O)O)C(=O)O)=NOC [(54)]
CC50 (in vitro): > 50000 nM

CCCCCCCC(=O)CCCCCC/C=C/[C@H](C(=O)N[C@@H](Cc1ccc(OCCC(C)C)cc1)C(=O)O)[C@@](O)(CC(=O)O)C(=O)O [Compound (46)]
CC50 (in vitro): > 5000 nM

CCCCCCCC(O)CCCCCC/C=C/[C@H](C(=O)N[C@@H](Cc1ccc(OCC=C(C)C)cc1)C(=O)O)[C@@](O)(CC(=O)O)C(=O)O (stereo partly shown) [Compound (47)]
CC50 (in vitro): > 5000 nM

CCCCCCCC(=O)CCCCCC/C=C/[C@H](C(=O)N[C@@H](Cc1ccc(O)cc1)C(=O)O)[C@@](O)(CC(=O)O)C(=O)O [Compound (48)]
CC50 (in vitro): > 5000 nM

CCCCCCCC(=O)CCCCCCCC[C@H](C(=O)N[C@@H](Cc1ccc(O)cc1)C(=O)O)[C@@](O)(CC(=O)O)C(=O)O [Compound (49)]
CC50 (in vitro): > 50000 nM

CCCCCCCC(=O)CCCCCC/C=C/[C@H](C(=O)N[C@@H](Cc1ccc(OCC=C(C)C)cc1)C(N)=O)[C@@](O)(CC(N)=O)C(N)=O [Compound (50)]
CC50 (in vitro): > 5000 nM

CCCCCCCC(=O)CCCCCC/C=C/[C@H](C(=O)N[C@@H](Cc1ccc(OCC=C(C)C)cc1)C(=O)O)[C@@](O)(CC(=O)O)C(=O)O [Compound (51)]
CC50 (Huh-3-1 cells): > 5000 nM
IC50 (HCV replicon): 72 nM

CCCCCCCCCCCCCC/C=C/[C@H](C(=O)N[C@@H](Cc1ccc(OCC=C(C)C)cc1)C(=O)O)[C@@](O)(CC(=O)O)C(=O)O [Compound (52)]
CC50 (in vitro): > 50000 nM
IC50 (HCV replicon; Hepatitis C virus, 72 h): 100 nM

CCCCCCCCCCCC(=O)N[C@@H](CO)C[C@H](O)c1ccccc1 [HPA-12, reference compound]
HCV replication (replicon activity) versus viable cell count (HCV replicon): suppressing the HCV replication at non-cytotoxic concentrations

CCCC[C@@H](C)[C@@H](OC(=O)C[C@@H](CC(=O)O)C(=O)O)[C@H](C[C@@H](C)C[C@H](O)CCCC[C@@H](O)C[C@H](O)[C@H](C)N)OC(=O)C[C@@H](CC(=O)O)C(=O)O [fumonisin B1, reference compound]
HCV replication (replicon activity) versus viable cell count (HCV replicon): suppressing the HCV replication at non-cytotoxic concentrations

CCCCCCC(=O)CCCCCC/C=C/C[C@@H](O)[C@H](O)[C@@](N)(CO)C(=O)O [myriocin]
IC50 (HCV protein (NS3)): 1 to 10 nM
HCV replication (replicon activity) versus viable cell count (HCV replicon): suppressing the HCV replication at non-cytotoxic concentrations
IC50 (HCV RNA replication): 1 to 10 nM

si246: siRNA targeting LCB1, a subunit of the SPT heterodimer; SEQ ID NO: 1 (CAUCGUUUCAGGCCCUCCATT; chemistry not given here)
effect of siRNA treatment on cytotoxicity (Huh-3-1 cells): almost no effect
LCB1 protein expression compared with control siRNA [1]: Particularly strong inhibition of expression
HCV replicon activity compared with control siRNA-treated cells (HCV replicon): strong inhibitory effect

si633: siRNA targeting LCB1, a subunit of the SPT heterodimer; SEQ ID NO: 2 (UGACAUGGCUGACCUCGAGTT; chemistry not given here)
effect of siRNA treatment on cytotoxicity (Huh-3-1 cells): almost no effect
LCB1 protein expression compared with control siRNA [1]: decrease the level of LCB1 protein expression
HCV replicon activity compared with control siRNA-treated cells (HCV replicon): significantly inhibited
